This note sets out measurements from ChEMBL document CHEMBL5346943, “Discovery and Structural Optimization of Novel Quinolone Derivatives as Potent Irreversible Pan-Fibroblast Growth Factor Receptor Inhibitors for Treating Solid Tumors” (J Med Chem, 2023).

The target in data set [1] is Fibroblast growth factor receptor 1 (Homo sapiens, UniProt P11362). The data set is described as follows: Inhibition of FGFR1 (unknown origin) incubated for 10 mins followed by substrate addition measured after 60 mins by ADP-Glo luminescence assay. For orientation: In ADP-Glo the light output rises with the ADP produced.
Data set [2] deals with Fibroblast growth factor receptor 4 (Homo sapiens, UniProt P22455). Put plainly: Inhibition of FGFR4 (unknown origin) incubated for 10 mins followed by substrate addition measured after 60 mins by ADP-Glo luminescence assay.
A short description of data set [3]: Solubility of the compound in PBS buffer of pH7.4 at 10 mM measured after 2 hrs by LC-MS/MS analysis. The data set is classed as physicochemical. The note with it: pH 7.4.
Data set [4] can be described thus: AUC (0 to t) in Sprague-Dawley rat measured at 2 mg/kg, iv for 0.083 to 24 hrs by LC-MS/MS analysis. The format is ADME, organism-based. Also noted: dose 2 mg/kg, time upper 24 hrs, time lower 0.083 hrs, route iv. The note with it: in vivo.
Data set [5] in a line: MRT (0 to infinity) in Sprague-Dawley rat measured at 2 mg/kg, iv for 0.083 to 24 hrs by LC-MS/MS analysis. The format is ADME, organism-based. Particulars: in vivo, time 0.083-24 hrs.
A short description of data set [6]: Cmax in Sprague-Dawley rat measured at 10 mg/kg, po for 0.083 to 24 hrs by LC-MS/MS analysis. The format is ADME, organism-based. Also noted: time 0.083-24 hrs, dose 10 mg/kg, route po. The note with it: in vivo.
Data set [7] can be described thus: Oral bioavailability in Sprague-Dawley rat measured at 10 mg/kg for 0.083 to 24 hrs by LC-MS/MS analysis. The format is ADME, organism-based. Particulars: in vivo, time 0.083-24 hrs.
Data set [8] is described as follows: Cmax in Sprague-Dawley rat measured at 30 mg/kg, po for 0.083 to 24 hrs by LC-MS/MS analysis. The data set is classed as ADME, organism-based. Further details: dose 30 mg/kg, time upper 24 hrs, time lower 0.083 hrs, route po. Particulars: in vivo.
Data set [9] is described as follows: Cmax in Sprague-Dawley rat measured at 60 mg/kg, po for 0.083 to 24 hrs by LC-MS/MS analysis. The data set is classed as ADME, organism-based. Further details: dose 60 mg/kg, time 0.083-24 hrs, route po. The note with it: in vivo.
Data set [10] can be described thus: Half life in Sprague-Dawley rat measured at 100 mg/kg, po for 0.083 to 24 hrs by LC-MS/MS analysis. The data set is classed as ADME, organism-based. Particulars: in vivo, time 0.083-24 hrs.
Data set [11] is described as follows: Tmax in Sprague-Dawley rat measured at 100 mg/kg, po for 0.083 to 24 hrs by LC-MS/MS analysis. The format is ADME, organism-based. The note with it: in vivo, time 0.083-24 hrs.
Data set [12] can be described thus: AUC(0 to t) in Sprague-Dawley rat measured at 30 mg/kg, po for 0.083 to 24 hrs by LC-MS/MS analysis. The data set is classed as ADME, organism-based. Also noted: time 0.083-24 hrs, dose 30 mg/kg, route po. Particulars: in vivo.
The nature of data set [13]: AUC(0 to infinity) in Sprague-Dawley rat measured at 60 mg/kg, po for 0.083 to 24 hrs by LC-MS/MS analysis. The format is ADME, organism-based. Further details: time lower 0.083 hrs, dose 60 mg/kg, time upper 24 hrs, route po. The note with it: in vivo.
Data set [14] deals with MV4-11. Put plainly: Antiproliferative activity against human MV4-11 cells incubated for 72 hrs by Cell counting kit 8 method. The data set is classed as functional, cell-based. Particulars: MV4-11, 72 h. (Tetrazolium assays rely on reduction of a dye to a coloured formazan, in cell work by metabolically active cells.)
Data set [15] has as its system A549. Put plainly: Antiproliferative activity against human A549 cells incubated for 72 hrs by Cell counting kit 8 method. The data set is classed as functional, cell-based. Particulars: A549, 72 h.
Data set [16] deals with MCF7. The data set is described as follows: Antiproliferative activity against human MCF7 cells incubated for 72 hrs by Cell counting kit 8 method. The format is functional, cell-based. The note with it: MCF7, 72 h.
Data set [17] concerns Huh-7. Put plainly: Antitumor activity against human Huh-7 cells xenografted in BALB/c nude mouse assessed as reduction in tumor growth once daily administered orally for 24 days. The format is functional. The note with it: dose 15-60 mg/kg, route po, time 24.0 day.
Data set [18] relates to Huh-7. The data set is described as follows: Antitumor activity against human Huh-7 cells xenografted in BALB/c nude mouse assessed as reduction in tumor growth once daily at 60 mg/kg, po for 24 days. The data set is classed as functional, organism-based. Particulars: time 24.0 day. (Xenograft models place foreign cells or tissue in a host animal.)
The nature of data set [19]: Toxicity in […] nude mouse xenografted with NCI-H1581 cells assessed as change in body weight once daily at 15 to 60 mg/kg, po for 24 days relative to control. The format is organism-based. The note with it: in vivo, 576 h, dose 15-60 mg/kg, time 24 day.

In brackets after ≈: the same amount, converted by molar mass. Activity calls are given as the source filed them. The rule behind the calls is not given here.

One may read the IC50 as the midpoint of a concentration-inhibition curve. Read a low IC50 as inhibition by little substance. What is called solubility is the concentration that dissolves in the medium under given conditions. High values mean a readily soluble substance, low ones a poorly soluble substance. A word on the AUC(0-t): it is the area under the concentration-time curve up to a stated or last time point. High values mean high exposure, low ones low exposure. What is called MRT is a mean duration of stay, worked out from the concentration-time curve. As usually defined, the Cmax is the peak of the concentration-time curve. As usually defined, the bioavailability is the share of a dose that reaches the circulation, judged against a reference dose that is usually intravenous. High values mean good availability, low ones poor availability. For orientation: half-life means the time in which the quantity being followed falls by half. For orientation: Tmax means the time from dosing to the highest level. A word on the AUC(0-inf): it is the area under the concentration-time curve extrapolated to infinity. Read a low AUC(0-inf) as less exposure.

Fibroblast growth factor receptor 1, sequence (P11362 whole entry): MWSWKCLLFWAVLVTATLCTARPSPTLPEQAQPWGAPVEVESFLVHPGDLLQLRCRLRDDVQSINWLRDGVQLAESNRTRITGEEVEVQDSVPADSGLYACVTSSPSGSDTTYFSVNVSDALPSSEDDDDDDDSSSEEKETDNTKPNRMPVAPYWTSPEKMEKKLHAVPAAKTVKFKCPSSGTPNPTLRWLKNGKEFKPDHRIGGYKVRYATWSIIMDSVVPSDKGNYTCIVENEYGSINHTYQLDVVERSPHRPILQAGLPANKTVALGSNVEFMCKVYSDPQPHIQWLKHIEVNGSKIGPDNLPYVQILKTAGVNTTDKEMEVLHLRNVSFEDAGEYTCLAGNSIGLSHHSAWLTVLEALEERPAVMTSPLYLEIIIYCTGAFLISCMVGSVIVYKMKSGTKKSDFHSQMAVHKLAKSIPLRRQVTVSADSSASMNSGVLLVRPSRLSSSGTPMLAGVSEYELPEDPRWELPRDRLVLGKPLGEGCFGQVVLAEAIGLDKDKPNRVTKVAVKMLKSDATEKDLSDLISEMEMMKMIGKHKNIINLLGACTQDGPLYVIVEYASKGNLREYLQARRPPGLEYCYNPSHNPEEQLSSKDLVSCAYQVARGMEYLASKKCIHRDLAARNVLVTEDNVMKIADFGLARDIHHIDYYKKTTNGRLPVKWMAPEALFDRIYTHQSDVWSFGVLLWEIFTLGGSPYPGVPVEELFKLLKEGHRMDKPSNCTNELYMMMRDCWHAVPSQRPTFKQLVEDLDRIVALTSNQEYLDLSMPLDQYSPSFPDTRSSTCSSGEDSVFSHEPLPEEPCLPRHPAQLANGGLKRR
Fibroblast growth factor receptor 4, sequence (P22455 whole entry): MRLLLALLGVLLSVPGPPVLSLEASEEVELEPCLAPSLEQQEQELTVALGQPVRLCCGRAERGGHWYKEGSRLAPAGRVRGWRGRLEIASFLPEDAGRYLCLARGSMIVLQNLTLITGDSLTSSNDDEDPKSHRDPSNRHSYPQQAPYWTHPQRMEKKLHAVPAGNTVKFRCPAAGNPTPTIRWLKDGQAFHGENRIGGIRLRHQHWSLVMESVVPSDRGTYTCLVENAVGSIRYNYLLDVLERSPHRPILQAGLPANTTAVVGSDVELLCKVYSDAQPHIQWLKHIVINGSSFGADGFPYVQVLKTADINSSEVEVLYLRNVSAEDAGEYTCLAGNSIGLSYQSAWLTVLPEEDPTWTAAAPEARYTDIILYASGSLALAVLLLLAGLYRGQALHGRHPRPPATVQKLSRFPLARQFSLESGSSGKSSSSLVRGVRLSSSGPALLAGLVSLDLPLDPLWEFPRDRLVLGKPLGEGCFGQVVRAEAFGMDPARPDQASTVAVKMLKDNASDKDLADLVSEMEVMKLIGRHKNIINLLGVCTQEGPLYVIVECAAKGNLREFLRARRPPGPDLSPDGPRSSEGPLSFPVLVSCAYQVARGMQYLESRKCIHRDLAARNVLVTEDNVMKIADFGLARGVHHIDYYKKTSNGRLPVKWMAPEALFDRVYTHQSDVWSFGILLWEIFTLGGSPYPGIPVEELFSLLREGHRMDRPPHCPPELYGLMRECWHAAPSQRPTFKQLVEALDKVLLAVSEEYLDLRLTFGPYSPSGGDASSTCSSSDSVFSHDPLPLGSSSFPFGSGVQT

For the molecule `C=CC(=O)N1CCC(c2cc3c(Oc4ccc(NC(=O)NC5CC5)c(Cl)c4)ccnc3cc2OC)CC1`, the IC50 in data set [1] was 9.9 nM; in data set [2] it was 1.8 nM; in data set [14] it was more than 10000 nM; in data set [15] it was more than 10000 nM; in data set [16], more than 10000 nM. In [3], this molecule registered a solubility at 2 h, 10000 µM of 1.73 µM (≈ 0.901 µg/mL). Besides, the area under the curve AUC(0-t) is 570 ng·h/mL in data set [4] and 7920 ng·h/mL in [12]. In data set [5], this molecule yielded an MRT of 11.4 min. In addition, the Cmax came to 1800 ng/mL in data set [6], 6070 ng/mL in [8] and 7990 ng/mL in [9]. In data set [7], the bioavailability stood at 60.7%. In addition, the half-life in data set [10] was 81.6 min. Also, in [11], the Tmax came to 30 min. The molecule further came in with an AUC(0-inf) in [13] of 14900 ng·h/mL. Also, the figures for the Activity entry in data set [17] and in data set [19] were “Dose-Dependent Effect” and “Active”, respectively. Also, the result in data set [18] was Active.
